Experimental findings from paper PMC10975012, “The Active Glucuronide Metabolite of the Brain Protectant IMM-H004 with Poor Blood–Brain Barrier Permeability Demonstrates a High Partition in the Rat Brain via Multiple Mechanisms” (Pharmaceutics, 2024) are described below.

Data set [1] can be described thus: Pharmacokinetics in rats with cerebral microdialysis. The settings on record: rat; for Kp: brain (cerebral cortex microdialysate) and plasma, read-out: Kp (AUCbrain/AUCplasma); for peak brain concentration: free concentration (microdialysis); for AUCbrain / concentration at 2 min / AUC: free concentration; for concentration at 2 min / AUC: plasma (free concentration); for AUC: read-out: AUCplasma. Type of data set: in vivo. The procedure:
Rats were anesthetized with isoflurane. Microdialysis intracerebral guide cannulas and CMA 12 Elite Probe (PAES membrane with a MWCO of 20 kDa, 2 mm membrane length (CMA/Microdialysis AB, Stockholm, Sweden)) were implanted into the cerebral cortex at the coordinates relative to bregma: medial/lateral = 3.0 mm; anterior/posterior = 0.5 mm; dorsal/ventral = −3.0 mm. After a 24 h recovery period, the intracerebral probe was connected to the microdialysis cannula, and Ringer’s solution was perfused at a flow rate of 2.0 μL/min. Then, IMM-H004 citrate or IMM-H004G (10 mg/kg) was injected intravenously (iv). Dialysate samples were collected every 5 to 60 min for a duration of 7 h. The probe recovery in vitro was determined by dialyzing a standard mixture of IMM-H004 (50 ng/mL) and IMM-H004G (300 ng/mL) infused with Ringer’s solution.
Blood samples were collected from the orbital plexus into heparinized tubes and subsequently centrifuged to separate the plasma. The concentrations of IMM-H004 and IMM-H004G in both the dialysate and plasma samples were determined using LC-MS/MS analysis. Subsequently, the free concentrations in the brain and plasma were corrected with probe recovery and fu for further analysis, respectively. The pharmacokinetic parameters were calculated via noncompartmental analysis (NCA) using Phoenix WinNonlin 6.3 (Pharsight Corporation, Sunnyvale, CA, USA). The brain–plasma partition coefficient (Kp) was determined as the ratio of the area under the concentration–time curve for the brain (AUCbrain) to that of the plasma (AUCplasma).

A short description of data set [2]: In vivo metabolism of IMM-H004 in rat brain after intracerebroventricular injection. The settings on record: for detection in brain regions: 6–60 min after icv injection of IMM-H004 3.8 μg/kg. As to the method:
The metabolism of IMM-H004 in the brain was investigated through the intracerebroventricular (icv) injection of IMM-H004 in rats, and the drug concentration in each brain region was analyzed. The rats were fixed on a benchmark stereotactic instrument (Leica Biosystems, Deer Park, IL, USA) under isoflurane anesthesia. Using a microinjector connected to a syringe pump, a 5 μL solution of IMM-H004 was dissolved in artificial cerebrospinal fluid (ACSF) and injected (3.8 μg/kg) into the lateral ventricle. The injection coordinates were as follows: medial/lateral = 1.5 mm; anterior/posterior = −0.8 mm; dorsal/ventral = −4 mm. Animals were sacrificed at 6, 15, 30, 45, and 60 min after drug administration. The brains were collected and dissected on ice into the following regions: the cerebellum, brainstem, hypothalamus, hippocampus, midbrain, striatum, and cortex. The subsequent procedure for processing tissue samples was the same as the procedure described in Section 2.3.1.

The target of data set [3] is T1, OATP2B1 (Homo sapiens, UniProt O94956).
T1 construct: host or cells: MDCKII
T1 sequence (O94956 1-709): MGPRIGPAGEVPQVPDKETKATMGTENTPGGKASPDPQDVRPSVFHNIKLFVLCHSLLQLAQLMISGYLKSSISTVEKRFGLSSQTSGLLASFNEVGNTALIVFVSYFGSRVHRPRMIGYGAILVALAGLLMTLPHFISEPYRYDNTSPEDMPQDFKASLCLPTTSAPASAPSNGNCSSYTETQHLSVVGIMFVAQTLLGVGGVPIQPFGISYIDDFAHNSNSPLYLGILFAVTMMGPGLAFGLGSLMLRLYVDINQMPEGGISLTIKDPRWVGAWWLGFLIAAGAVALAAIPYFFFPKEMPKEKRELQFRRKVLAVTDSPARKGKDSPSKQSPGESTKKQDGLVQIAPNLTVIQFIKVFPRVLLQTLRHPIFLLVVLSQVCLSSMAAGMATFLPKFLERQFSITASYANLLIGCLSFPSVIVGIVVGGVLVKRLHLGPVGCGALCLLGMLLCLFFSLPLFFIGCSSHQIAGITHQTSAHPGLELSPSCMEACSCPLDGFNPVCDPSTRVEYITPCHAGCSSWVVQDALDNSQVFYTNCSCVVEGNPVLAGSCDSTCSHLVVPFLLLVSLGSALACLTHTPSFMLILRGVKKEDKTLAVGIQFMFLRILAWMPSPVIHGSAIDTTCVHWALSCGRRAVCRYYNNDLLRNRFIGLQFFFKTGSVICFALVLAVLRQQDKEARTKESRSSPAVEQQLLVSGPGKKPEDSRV
Briefly: Uptake in MDCKⅡ-OATP2B1 overexpressing cells. Format: cell-based. To be noted: MDCKⅡ-OATP2B1 vs mock, 10 min; IMM-H004G 10 μmol/L. An excerpt:
CHO cells and MDCKⅡ cells were stably transfected with lentiviruses carrying human SCLO1A2 (encoding OATP1A2) and SCLO2B1 (encoding OATP2B1), respectively. Cell transfected with lentiviruses carrying empty vectors served as control. Lentiviral plasmid packages were obtained from OBiO Technology (Shanghai, China), and procedures followed the instructions of the virus manual. Stably transfected cells were routinely grown in a 100 mm dish in DMEM with 10% fetal bovine serum. Prior to the experiments, the seeding density of the overexpressing cells in 24-well plates was 4 × 10^5 cells per well, and the medium was supplemented with 2 mM sodium butyrate for 24 h. The cultured cells were washed twice with prewarmed HBSS after removing the medium and then treated with 10 μmol/L IMM-H004G and 100 μmol/L rifampicin (or an equal amount of solvent dimethyl sulfoxide) for 10 min. After incubation, the cells were washed four times with cold HBSS. Follow-up sample processing procedures were as described in Section 2.3.1. E17βG (5 μmol/L) and rosuvastatin (10 μmol/L) were used as positive substrates in CHO-OATP1A2 and MDCKⅡ-OATP2B1 cells, respectively. The MDCKⅡ-MDR1 cells were previously established by our laboratory.

[4] abbreviates: after iv IMM-H004 citrate 10 mg/kg.

For the molecule `COc1cc(OC2OC(C(=O)O)C(O)C(O)C2O)cc2oc(=O)c(N3CCN(C)CC3)c(C)c12` (stereo not drawn) [IMM-H004G], in data set [1] (setting [4]), the “AUCbrain relative to that of IMM-H004” value amounted to 5.4 times, the “AUCplasma relative to that of IMM-H004” value stood at 116 times, the Kp stood at 0.06 and the AUCbrain worked out at 1053 nmol·h/L. The AUC in data set [1] (setting [4]) worked out at 16.4 µM·h. In addition, in data set [1] (after iv IMM-H004G 10 mg/kg), the peak brain concentration came to 1712 nmol/L, the AUCbrain worked out at 1923 nmol·h/L and the concentration at 2 min was 40.2 µM. The “detection in brain regions” value in data set [2] was “only detected at lower concentrations in the hypothalamus”. In addition, in data set [2] (hypothalamus and plasma, icv or intrathecal, 3.8 ug/kg, after icv injection of IMM-H004 3.8 μg/kg, read-out: hypothalamus-to-plasma AUC ratio), the Kp was found to be 3.13. For the same molecule, the “uptake increase in OATP2B1-overexpressing cells compared to control cells” value in data set [3] is on record as 190 fold.

With `COc1cc(O)cc2oc(=O)c(N3CCN(C)CC3)c(C)c12` [IMM-H004], in data set [1] (setting [4]), the Kp stood at 1.39, the AUCbrain was found to be 196 nmol·h/L and the AUC stood at 0.141 µM·h. Moreover, in data set [1] (after iv IMM-H004G 10 mg/kg), the peak brain concentration was 35.1 nmol/L, the AUCbrain was determined as 93.8 nmol·h/L and the concentration at 2 min is 0.0398 µM. The “detection in brain regions” value in data set [2] is on record as “detected in all brain regions”.
